Reference: patent US20260207602A1, “EGFR INHIBITORS” (Blueprint Medicines Corporation, priority 2022, published 2026)

Key:
EGFR L858R = target: T1, EGFR L858R (Homo sapiens, UniProt P00533, L858R); assay: Biochemical EGFR inhibition assay (Caliper mobility shift), EGFR L858R; conditions: biochemical Caliper mobility shift assay, EGFR L858R enzyme; read-out: Enz EGFR L858R IC50
T1 construct: purchased SignalChem E10-122BG
Procedure, shortened: (§1)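 Apparent IC50 values come from Caliper electrophoretic separation of phosphorylated and unphosphorylated 5-FAM peptide (2.5 μM). ATP was either 1.0 mM or at Km; HEPES pH 7.5 buffer with MgCl2, DTT, 1% DMSO. Reactions ran at 25 °C until 10–20% phosphorylated, then EDTA quench.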

EGFR (d746-750) = target: T2, EGFR (d746-750) (Homo sapiens, UniProt P00533, DEL746-750); assay: Biochemical EGFR inhibition assay (Caliper mobility shift), EGFR (d746-750); conditions: biochemical Caliper mobility shift assay, EGFR Exon 19-del enzyme; read-out: Enz EGFR Exon 19-del IC50
T2 construct: purchased SignalChem E10-122JG
Procedure, shortened: as §1

[1] = target: intracellular phosphorylation of EGFR (Tyr1068) in PC-9 cells (Homo sapiens, UniProt P00533, DEL746-750); assay: PC-9 pEGFR AlphaLISA assay; format: cell-based; conditions: 4 hours incubation, read-out: Phos EGFR PC9 IC50
Procedure, shortened: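 PC-9 cells (EGFR del746-750) in phenol-free DMEM/10% FBS, adhered overnight, then exposed to 10-point 4-fold compound dilutions for 4 h at 37 °C. Lysates assayed for pEGFR Tyr1068 by AlphaLISA SureFire Ultra; IC50 from percent pEGFR inhibition vs log concentration.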

T1 sequence (P00533 25-1210 L858R): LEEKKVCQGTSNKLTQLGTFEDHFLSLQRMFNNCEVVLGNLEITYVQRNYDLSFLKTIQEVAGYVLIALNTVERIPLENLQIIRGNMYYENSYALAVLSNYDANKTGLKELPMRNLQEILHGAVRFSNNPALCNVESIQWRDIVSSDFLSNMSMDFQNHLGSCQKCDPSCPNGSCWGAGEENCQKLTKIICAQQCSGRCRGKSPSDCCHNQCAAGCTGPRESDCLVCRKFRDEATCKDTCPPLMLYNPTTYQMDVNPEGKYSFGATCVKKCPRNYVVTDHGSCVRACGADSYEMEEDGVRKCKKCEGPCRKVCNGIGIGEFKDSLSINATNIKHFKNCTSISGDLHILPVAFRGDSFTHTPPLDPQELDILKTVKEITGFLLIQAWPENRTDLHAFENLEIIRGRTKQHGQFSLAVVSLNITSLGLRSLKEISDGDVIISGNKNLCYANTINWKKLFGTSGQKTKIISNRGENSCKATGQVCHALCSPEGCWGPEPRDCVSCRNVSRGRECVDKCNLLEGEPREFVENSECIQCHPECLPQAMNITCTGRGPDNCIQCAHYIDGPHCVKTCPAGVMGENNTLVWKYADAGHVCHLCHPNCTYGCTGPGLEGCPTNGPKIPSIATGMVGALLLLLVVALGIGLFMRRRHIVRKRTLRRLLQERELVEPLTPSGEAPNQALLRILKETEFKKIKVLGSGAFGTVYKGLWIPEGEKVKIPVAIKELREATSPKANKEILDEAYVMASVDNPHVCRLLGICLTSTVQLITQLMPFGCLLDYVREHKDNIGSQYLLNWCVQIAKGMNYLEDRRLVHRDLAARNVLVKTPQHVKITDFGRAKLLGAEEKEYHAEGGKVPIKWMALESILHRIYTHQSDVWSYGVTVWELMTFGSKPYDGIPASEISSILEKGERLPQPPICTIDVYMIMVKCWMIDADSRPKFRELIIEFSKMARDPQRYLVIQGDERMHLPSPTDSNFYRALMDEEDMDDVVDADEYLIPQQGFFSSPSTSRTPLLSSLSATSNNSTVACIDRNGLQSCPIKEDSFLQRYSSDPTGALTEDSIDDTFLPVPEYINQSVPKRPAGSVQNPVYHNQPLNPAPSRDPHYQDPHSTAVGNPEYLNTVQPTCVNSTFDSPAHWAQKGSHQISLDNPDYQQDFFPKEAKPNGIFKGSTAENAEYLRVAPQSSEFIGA
Chain of intracellular phosphorylation of EGFR (Tyr1068) in PC-9 cells (P00533 with tags, fused parts or gaps DEL746-750): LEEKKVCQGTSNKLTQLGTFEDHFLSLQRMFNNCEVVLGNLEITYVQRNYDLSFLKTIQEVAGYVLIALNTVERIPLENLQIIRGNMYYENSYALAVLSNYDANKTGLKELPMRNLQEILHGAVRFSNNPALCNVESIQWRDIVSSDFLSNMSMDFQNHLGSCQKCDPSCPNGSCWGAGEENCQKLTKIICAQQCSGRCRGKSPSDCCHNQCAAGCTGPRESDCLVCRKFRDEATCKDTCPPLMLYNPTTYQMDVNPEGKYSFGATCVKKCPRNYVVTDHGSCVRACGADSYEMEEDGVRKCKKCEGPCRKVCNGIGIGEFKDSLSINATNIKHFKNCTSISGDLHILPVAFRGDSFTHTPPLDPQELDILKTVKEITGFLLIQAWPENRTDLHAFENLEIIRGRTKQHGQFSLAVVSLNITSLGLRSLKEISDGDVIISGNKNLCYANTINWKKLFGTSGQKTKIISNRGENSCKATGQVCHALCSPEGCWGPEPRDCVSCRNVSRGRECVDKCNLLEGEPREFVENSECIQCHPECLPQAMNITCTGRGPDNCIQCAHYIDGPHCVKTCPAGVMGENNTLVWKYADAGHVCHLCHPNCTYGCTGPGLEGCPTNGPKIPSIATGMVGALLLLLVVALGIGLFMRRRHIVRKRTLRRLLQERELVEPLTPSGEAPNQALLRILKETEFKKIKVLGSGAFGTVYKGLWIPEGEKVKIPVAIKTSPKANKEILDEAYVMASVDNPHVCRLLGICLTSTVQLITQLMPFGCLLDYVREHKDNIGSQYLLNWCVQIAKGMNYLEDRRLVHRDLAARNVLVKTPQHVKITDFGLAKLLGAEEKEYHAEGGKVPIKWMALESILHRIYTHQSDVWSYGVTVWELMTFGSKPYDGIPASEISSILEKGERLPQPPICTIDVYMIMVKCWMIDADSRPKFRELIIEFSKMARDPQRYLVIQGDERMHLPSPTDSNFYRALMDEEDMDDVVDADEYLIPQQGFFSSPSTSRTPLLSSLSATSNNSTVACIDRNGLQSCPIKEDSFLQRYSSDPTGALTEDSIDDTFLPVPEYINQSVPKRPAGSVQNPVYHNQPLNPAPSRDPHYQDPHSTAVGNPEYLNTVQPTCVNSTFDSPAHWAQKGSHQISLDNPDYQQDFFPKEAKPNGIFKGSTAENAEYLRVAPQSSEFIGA
T2 sequence (P00533 with tags, fused parts or gaps DEL746-750 limits assumed): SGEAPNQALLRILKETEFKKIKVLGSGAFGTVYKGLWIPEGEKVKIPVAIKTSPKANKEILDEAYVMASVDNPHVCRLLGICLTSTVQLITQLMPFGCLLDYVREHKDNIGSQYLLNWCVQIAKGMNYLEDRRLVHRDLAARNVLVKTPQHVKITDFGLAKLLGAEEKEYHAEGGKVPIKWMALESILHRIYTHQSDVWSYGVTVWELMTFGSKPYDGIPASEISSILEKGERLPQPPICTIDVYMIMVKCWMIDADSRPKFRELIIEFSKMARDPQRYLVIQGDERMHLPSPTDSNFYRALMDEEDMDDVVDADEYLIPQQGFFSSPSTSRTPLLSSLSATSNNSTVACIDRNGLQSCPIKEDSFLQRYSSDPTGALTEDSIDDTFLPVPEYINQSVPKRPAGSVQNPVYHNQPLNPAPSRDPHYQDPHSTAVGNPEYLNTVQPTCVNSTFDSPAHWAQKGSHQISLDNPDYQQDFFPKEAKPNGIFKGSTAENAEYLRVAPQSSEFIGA

Compound | IC50 (EGFR L858R) [nM] | IC50 (EGFR (d746-750)) [nM] | IC50 [1] [nM]
CCN1CC[C@H](Oc2cc(-c3cnn(C)c3)cc3ncnc(Nc4ccc5ncsc5c4)c23)C1=O (single isomer, unassigned) [Example 59, (S)-3-((4-(benzo[d]thiazol-6-ylamino)-7-(1-methyl-1H-pyrazol-4-yl)quinazolin-5-yl)oxy)-1-ethylpyrrolidin-2-one or (R)-3-((4-(benzo[d]thiazol-6-ylamino)-7-(1-methyl-1H-pyrazol-4-yl)quinazolin-5-yl)oxy)-1-ethylpyrrolidin-2-one] | ≤ 10 | ≤ 10 | ≤ 10
COc1nn(C)cc1-c1cc(OC2CCN(C)CC2)c2c(Nc3ccc4ncsc4c3F)ncnc2c1 [Example 320, 7-fluoro-N-(7-(3-methoxy-1-methyl-1H-pyrazol-4-yl)-5-((1-methylpiperidin-4-yl)oxy)quinazolin-4-yl)benzo[d]thiazol-6-amine] | ≤ 10 | ≤ 10 | 10.1 to 50
CO[C@@H]1CNCC[C@H]1Oc1cc(-c2cnn(C)c2)cc2ncnc(Nc3ccc4ncsc4c3)c12 (single isomer, unassigned) [Example A42] | ≤ 10 | ≤ 10 | ≤ 10
CCN1CCN(C(=O)Nc2cc3c(Nc4ccc5ncsc5c4F)ncnc3cc2-c2ccn(C)n2)[C@@H](C)C1 [Example 398, (S)-4-ethyl-N-(4-((7-fluorobenzo[d]thiazol-6-yl)amino)-7-(1-methyl-1H-pyrazol-3-yl)quinazolin-6-yl)-2-methylpiperazine-1-carboxamide] | ≤ 10 | ≤ 10 | ≤ 10
C[C@H](CO)Oc1cc(N2CCN(C)CC2)cc2ncnc(Nc3ccc4ncsc4c3F)c12 (single isomer, unassigned) [Example 296] | ≤ 10 | ≤ 10 | ≤ 10
CCn1cc(-c2cc(OC3CCN(C4COC4)CC3)c3c(Nc4ccc5ncsc5c4)ncnc3c2)cn1 [Example 307, N-(7-(1-ethyl-1H-pyrazol-4-yl)-5-((1-(oxetan-3-yl)piperidin-4-yl)oxy)quinazolin-4-yl)benzo[d]thiazol-6-amine] | ≤ 10 | ≤ 10 | ≤ 10
CCN1CCN(C(=O)Nc2cc3c(Nc4ccc5ncsc5c4)ncnc3cc2-c2ccn(C)n2)CC1 [Example 253, N-(4-(benzo[d]thiazol-6-ylamino)-7-(1-methyl-1H-pyrazol-3-yl)quinazolin-6-yl)-4-ethylpiperazine-1-carboxamide] | ≤ 10 | ≤ 10 | ≤ 10
CN1CCC(n2cc(-c3cc4ncnc(Nc5ccc6ncsc6c5F)c4cc3F)cn2)CC1 [Example 356, 7-fluoro-N-(6-fluoro-7-(1-(1-methylpiperidin-4-yl)-1H-pyrazol-4-yl)quinazolin-4-yl)benzo[d]thiazol-6-amine] | ≤ 10 | ≤ 10 | ≤ 10
CN1CCC(Oc2cc(-c3cnn(C)c3)cc3ncnc(Nc4ccc5scnc5c4)c23)CC1 [Example A03, N-(7-(1-methyl-1H-pyrazol-4-yl)-5-((1-methylpiperidin-4-yl)oxy)quinazolin-4-yl)benzo[d]thiazol-5-amine] | 10.1 to 50 | ≤ 10 | 10.1 to 50
CN1CC[C@H](Oc2cc(-c3cnn(C)c3)cc3ncnc(Nc4ccc5ncsc5c4)c23)[C@@H](F)C1 (racemic) [Example 343, trans-N-(5-(((3S,4S)-3-fluoro-1-methylpiperidin-4-yl)oxy)-7-(1-methyl-1H-pyrazol-4-yl)quinazolin-4-yl)benzo[d]thiazol-6-amine] | ≤ 10 | ≤ 10 | ≤ 10
CC(Oc1cc(-c2cnn(C)c2)cc2ncnc(Nc3ccc4ncsc4c3F)c12)C(=O)N1CCOCC1 (stereo not drawn) [Example 281, 2-((4-((7-fluorobenzo[d]thiazol-6-yl)amino)-7-(1-methyl-1H-pyrazol-4-yl)quinazolin-5-yl)oxy)-1-morpholinopropan-1-one] | ≤ 10 | ≤ 10 | ≤ 10
Cn1cc(-c2cc(O[C@@H]3CNC[C@H](F)C3)c3c(Nc4ccc5ncsc5c4)ncnc3c2)cn1 (racemic) [Example 329, cis-N-(5-(((3S,5R)-5-fluoropiperidin-3-yl)oxy)-7-(1-methyl-1H-pyrazol-4-yl)quinazolin-4-yl)benzo[d]thiazol-6-amine] | ≤ 10 | ≤ 10 | ≤ 10
Cn1cc(-c2cc(O[C@H]3CCOC[C@@H]3F)c3c(Nc4ccc5ncsc5c4)ncnc3c2)cn1 (single isomer, unassigned) [Example 46] | ≤ 10 | ≤ 10 | ≤ 10
COC[C@H](C)Oc1cc(-c2cnn(C)c2)cc2ncnc(Nc3ccc4ncsc4c3F)c12 [Example 139, (S)-7-fluoro-N-(5-((1-methoxypropan-2-yl)oxy)-7-(1-methyl-1H-pyrazol-4-yl)quinazolin-4-yl)benzo[d]thiazol-6-amine] | ≤ 10 | ≤ 10 | ≤ 10
C[C@H]([C@@H](C)Oc1cc(-c2cnn(C)c2)cc2ncnc(Nc3ccc4ncsc4c3)c12)N(C)C (single isomer, unassigned) [Example 143] | ≤ 10 | ≤ 10 | ≤ 10
CC(Oc1cc(-c2cn(C)nc2OC(F)F)cc2ncnc(Nc3ccc4ncsc4c3)c12)C1COC1 (single isomer, unassigned) [Example 173] | ≤ 10 | ≤ 10 | ≤ 10
Cn1cc(-c2cc(OC3CCN(C4COC4)CC3)c3c(Nc4ccc5ncsc5c4F)ncnc3c2)cn1 [Example 315, 7-fluoro-N-(7-(1-methyl-1H-pyrazol-4-yl)-5-((1-(oxetan-3-yl)piperidin-4-yl)oxy)quinazolin-4-yl)benzo[d]thiazol-6-amine] | ≤ 10 | ≤ 10 | ≤ 10
CO[C@@H]1CCNC[C@H]1Oc1cc(-c2cnn(C)c2)cc2ncnc(Nc3ccc4ncsc4c3)c12 (single isomer, unassigned) [Example A38] | 10.1 to 50 | ≤ 10 | 10.1 to 50
COc1nn(C)cc1-c1cc(O[C@@H]2CCN(C)C[C@H]2F)c2c(Nc3ccc4ncsc4c3)ncnc2c1 (single isomer, unassigned) [Example 358] | ≤ 10 | ≤ 10 | ≤ 10
C[C@@H](Oc1cc(-c2cnn(C)c2)cc2ncnc(Nc3ccc4ncsc4c3)c12)C(=O)N1CCOCC1 [Example 285, (R)-2-((4-(benzo[d]thiazol-6-ylamino)-7-(1-methyl-1H-pyrazol-4-yl)quinazolin-5-yl)oxy)-1-morpholinopropan-1-one] | ≤ 10 | ≤ 10 | ≤ 10
Cn1cc(-c2cc(OCC3COC3)c3c(Nc4ccc5ncsc5c4F)ncnc3c2)cn1 [Example 13, 7-fluoro-N-(7-(1-methyl-1H-pyrazol-4-yl)-5-(oxetan-3-ylmethoxy)quinazolin-4-yl)benzo[d]thiazol-6-amine] | ≤ 10 | ≤ 10 | ≤ 10
COc1cc2ncnc(Nc3ccc4ncsc4c3)c2cc1-c1cnn(C)c1 [Example 132, N-(7-methoxy-6-(1-methyl-1H-pyrazol-4-yl)quinazolin-4-yl)benzo[d]thiazol-6-amine] | ≤ 10 | ≤ 10 | ≤ 10
C[C@@H](Oc1cc(N2CCN(C)CC2)cc2ncnc(Nc3ccc4ncsc4c3F)c12)[C@H]1CCCO1 [Example 115, 7-fluoro-N-(7-(4-methylpiperazin-1-yl)-5-((R)-1-((R)-tetrahydrofuran-2-yl)ethoxy)quinazolin-4-yl)benzo[d]thiazol-6-amine] | ≤ 10 | ≤ 10 | ≤ 10
CC(C)N1CC[C@@H](Oc2cc(-c3cnn(C)c3)cc3ncnc(Nc4ccc5ncsc5c4)c23)C1=O (single isomer, unassigned) [Example 64] | ≤ 10 | ≤ 10 | 10.1 to 50
C[C@@H](Oc1cc(N2CCN(C)[C@@H]3C[C@@H]32)cc2ncnc(Nc3ccc4ncsc4c3)c12)C1COC1 (single isomer, unassigned) [Example 299] | 10.1 to 50 | ≤ 10 | 10.1 to 50
Cn1cc(-c2cc(OC3COCC3(F)F)c3c(Nc4ccc5ncsc5c4)ncnc3c2)cn1 (stereo not drawn) [Example 14, N-(5-((4,4-difluorotetrahydrofuran-3-yl)oxy)-7-(1-methyl-1H-pyrazol-4-yl)quinazolin-4-yl)benzo[d]thiazol-6-amine] | ≤ 10 | ≤ 10 | 10.1 to 50
C[C@H](CN(C)C)Oc1cc(N2CC3CC(C2)O3)cc2ncnc(Nc3ccc4ncsc4c3)c12 [Example 177, N-(7-(6-oxa-3-azabicyclo[3.1.1]heptan-3-yl)-5-(((R)-1-(dimethylamino)propan-2-yl)oxy)quinazolin-4-yl)benzo[d]thiazol-6-amine] | ≤ 10 | ≤ 10 | ≤ 10
CCN1CCC(Oc2cc(-c3cnn(C)c3)cc3ncnc(Nc4ccc5ncsc5c4)c23)C1=O (racemic) [Example 58, (rac)-3-((4-(benzo[d]thiazol-6-ylamino)-7-(1-methyl-1H-pyrazol-4-yl)quinazolin-5-yl)oxy)-1-ethylpyrrolidin-2-one] | ≤ 10 | ≤ 10 | ≤ 10
